Consider three compounds from patent US7736624B2, “Methods and compositions for diagnostic and therapeutic targeting of COX-2” (priority 2006, dated 2010).

Each structure is given as a SMILES string. pIC50: −log10 of the molar value. Read-outs that look alike come from different tables or passages of the source.

By pIC50 is commonly meant the IC50 on a negative log10 scale, so that one unit is a factor of ten.

Data set [1] relates to COX-1. To be noted: literature; cited from earlier work.
For data set [2], the target named is T1, COX-1 (Ovis aries, UniProt P05979).
T1 sequence (P05979 25-600): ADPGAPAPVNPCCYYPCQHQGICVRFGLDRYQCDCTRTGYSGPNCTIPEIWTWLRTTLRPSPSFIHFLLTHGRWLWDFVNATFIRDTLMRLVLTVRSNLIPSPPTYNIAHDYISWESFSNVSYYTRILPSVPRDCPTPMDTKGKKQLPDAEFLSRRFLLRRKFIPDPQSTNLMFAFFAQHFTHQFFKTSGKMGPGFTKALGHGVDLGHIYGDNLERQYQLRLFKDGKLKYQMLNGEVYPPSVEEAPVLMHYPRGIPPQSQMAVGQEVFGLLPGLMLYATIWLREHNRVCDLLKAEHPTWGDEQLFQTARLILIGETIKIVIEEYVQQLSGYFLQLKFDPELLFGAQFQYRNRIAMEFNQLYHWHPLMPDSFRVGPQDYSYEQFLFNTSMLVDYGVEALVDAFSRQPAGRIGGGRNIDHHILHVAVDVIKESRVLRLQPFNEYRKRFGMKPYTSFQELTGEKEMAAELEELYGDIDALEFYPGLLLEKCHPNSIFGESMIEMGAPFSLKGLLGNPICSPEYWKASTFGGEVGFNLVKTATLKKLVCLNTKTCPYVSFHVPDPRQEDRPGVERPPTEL
The settings on record: literature; cited from earlier work.

Data set [3] deals with T2, COX-2 (Homo sapiens, UniProt P35354).
T2 sequence (P35354 18-604): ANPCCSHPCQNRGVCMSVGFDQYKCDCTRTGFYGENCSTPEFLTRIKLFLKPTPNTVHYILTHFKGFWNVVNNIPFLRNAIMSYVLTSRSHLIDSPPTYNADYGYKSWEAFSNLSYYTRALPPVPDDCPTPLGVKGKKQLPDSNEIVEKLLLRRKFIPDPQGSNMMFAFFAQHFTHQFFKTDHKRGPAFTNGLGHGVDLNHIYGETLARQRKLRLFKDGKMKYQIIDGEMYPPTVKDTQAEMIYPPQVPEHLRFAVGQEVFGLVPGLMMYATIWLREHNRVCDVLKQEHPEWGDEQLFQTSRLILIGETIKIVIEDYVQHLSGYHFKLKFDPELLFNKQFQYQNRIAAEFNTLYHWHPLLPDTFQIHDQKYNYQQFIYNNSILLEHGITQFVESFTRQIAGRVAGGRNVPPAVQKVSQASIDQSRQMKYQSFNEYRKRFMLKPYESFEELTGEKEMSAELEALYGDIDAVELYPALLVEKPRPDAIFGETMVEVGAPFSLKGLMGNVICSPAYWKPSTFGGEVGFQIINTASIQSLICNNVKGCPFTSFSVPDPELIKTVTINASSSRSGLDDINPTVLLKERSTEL
Also noted: 1483 Head/Neck Squamous Cell Carcinoma Cells (Sacks et al. (1988) Cancer Res 48, 2858-2866), which express COX-2; endogenous in cells; host or cells: 1483 HNSCC cells. The settings on record: literature; cited from earlier work.

Data set [4] has as its target T2, COX-2. The experiment in a line: IC50 determinations using purified enzymes (TLC assay), COX-2. It is filed as biochemical. Also on record: made in house; host or cells: Sf9 insect cells. The settings on record: purified enzyme; read-out: COX-2 IC50.
Data set [5] is described as follows: In vitro metabolism study (esterase hydrolysis) with 1483 HNSCC cells, RP-HPLC. It is filed as in vitro ADME. The settings on record: human, read-out: t1/2, disappearance of the parent conjugate (converted). Here is the method: (§1) An in vitro metabolism study was performed with Compound 27i using 1483 HNSCC cells to check the enzymatic (esterase) hydrolysis of the conjugate and identify metabolites up to 24 hours (h).

Data set [6] deals with 1483 HNSCC cells. The data set is described as above. The settings on record: up to 24 hours. It is filed as in vitro ADME. Here is the method:
as §1

Data set [7] concerns the target T3, ovine COX-1 (Ovis aries, UniProt P05979).
T3 construct: can be purified from ovine seminal vesicles by standard procedures; from tissue; host or cells: ovine seminal vesicles
T3 sequence (P05979 25-600): T1 sequence (P05979 25-600)
The experiment in a line: IC50 determinations using purified enzymes (TLC assay), COX-1. It is filed as biochemical. To be noted: Table 1; assayed against purified enzymes.

Regarding `COc1ccc2c(c1)c(CC(=O)O)c(C)n2C(=O)c1ccc(Cl)cc1` [Indomethacin, indomethacin], the “potency as ligand of COX-1 relative to COX-2” value in data set [1] was “approximately 15 fold”.
`O=C(c1ccccc1)c1ccc2n1CCC2C(=O)NCc1ccc(F)cc1` (stereo not shown) [p-fluorobenzylamide of ketorolac]: the pIC50 in data set [2] was < 4.19; in data set [3], 7.10.
Consider `COc1ccc2c(c1)c(CC(=O)NCCOC(=O)\C=C(C)/C=C/C=C(C)/C=C/C1=C(C)CCCC1(C)C)c(C)n2C(=O)c1ccc(Cl)cc1` [Compound 27i], for which the pIC50 in data set [4] was 6.97; in data set [7] it was < 5.40. Besides, the half-life in data set [5] is 5.5 h. Moreover, the parent conjugate remained in data set [6] is 25%.
